Data as given in ChEMBL document CHEMBL1201862, “PubChem BioAssay data set” (2004).
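Each compound was tested at five concentrations against cells in 96-well plates for 48 hours. Abbreviation: GI50, concentration required for 50% inhibition of growth.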 The source made the active and inactive calls. Rule as the data show it: active = GI50 up to about 1.1 µM and inactive = higher.

Key:
Assay in all cases: NCI tumour cell line growth inhibition, 48 h
SK-MEL-28 = system: SK-MEL-28
UACC-257 = system: UACC-257
SN12C = system: SN12C
UO-31 = system: UO-31
786-0 = system: 786-0
NCI-H23 = system: NCI-H23
HCT-116 = system: HCT-116
KM12 = system: KM12
EKVX = system: EKVX
K562 = system: K562
COLO 205 = system: COLO 205
UACC-62 = system: UACC-62
HCC 2998 = system: HCC 2998
SF-539 = system: SF-539
SF-295 = system: SF-295
DLD-1 = system: DLD-1
SNB-75 = system: SNB-75
MOLT-4 = system: MOLT-4
Hs-578T = system: Hs-578T
MCF7 = system: MCF7

Measured: GI50

COc1ccc(/C=C2/C(=O)N(C(=O)c3ccc(Cl)cc3)N=C2C)cc1OC
inactive: SK-MEL-28 > 100 µM | UACC-257 > 100 µM | SN12C > 100 µM | UO-31 > 100 µM | 786-0 > 100 µM | NCI-H23 > 100 µM | HCT-116 > 100 µM | KM12 > 100 µM | EKVX > 100 µM | K562 > 100 µM | COLO 205 > 100 µM | UACC-62 > 100 µM | HCC 2998 > 100 µM | SF-539 > 100 µM | SF-295 > 100 µM | DLD-1 > 100 µM

COc1ccc(/N=c2\ssc3c(=S)ssc23)cc1
inactive: SK-MEL-28 25.3 µM | UACC-257 > 10 µM | SN12C 37.8 µM | 786-0 34.1 µM | SNB-75 19.4 µM | NCI-H23 34.5 µM | HCT-116 26 µM | KM12 62.7 µM | K562 3.99 µM | MOLT-4 3.72 µM | UACC-62 20.2 µM | HCC 2998 37.2 µM | SF-539 27.4 µM | SF-295 53.3 µM | DLD-1 15.5 µM

COc1ccccc1/C=N/N=C(\N)NO
inactive: SK-MEL-28 21.3 µM | UACC-257 29.1 µM | SN12C 30.2 µM | UO-31 7.18 µM | 786-0 23 µM | NCI-H23 45.2 µM | HCT-116 25.6 µM | KM12 12.7 µM | EKVX 18.9 µM | K562 3.65 µM | MOLT-4 12.6 µM | COLO 205 18.9 µM | UACC-62 4.21 µM | HCC 2998 4.68 µM | SF-539 3.03 µM | SF-295 3.09 µM | DLD-1 23.8 µM

c1ccc2c(c1)[Se]c1ccccc1[Se]2
inactive: SK-MEL-28 > 100 µM | UACC-257 > 100 µM | SN12C > 100 µM | UO-31 51.6 µM | 786-0 > 100 µM | SNB-75 21.2 µM | NCI-H23 63.5 µM | HCT-116 28.1 µM | KM12 > 100 µM | K562 > 100 µM | MOLT-4 77.6 µM | COLO 205 > 100 µM | UACC-62 > 100 µM | SF-539 44.3 µM | SF-295 25.6 µM | DLD-1 53.8 µM

CCOC(=O)C(NCc1cccc(C(F)(F)F)c1)(NC(=O)CC)C(F)(F)F (stereo not drawn)
inactive: SK-MEL-28 > 100 µM | UACC-257 > 100 µM | SN12C > 100 µM | UO-31 51.8 µM | 786-0 > 100 µM | Hs-578T > 100 µM | SNB-75 63.5 µM | NCI-H23 > 100 µM | HCT-116 > 100 µM | KM12 > 100 µM | EKVX 68.5 µM | K562 > 100 µM | MOLT-4 82.6 µM | COLO 205 > 100 µM | UACC-62 96.6 µM | HCC 2998 > 100 µM | MCF7 > 100 µM | SF-539 > 100 µM | SF-295 > 100 µM

C=CC[C@H]1[C@@H](O[Si](C)(C)C(C)(C)C)[C@H](n2ccc(=O)[nH]c2=O)O[C@@H]1CO[Si](C)(C)C(C)(C)C
inactive: SK-MEL-28 1.55 µM | UACC-257 2.45 µM | SN12C 1.52 µM | UO-31 1.69 µM | 786-0 1.56 µM | Hs-578T 3.01 µM | SNB-75 1.34 µM | NCI-H23 2.14 µM | HCT-116 1.47 µM | KM12 1.65 µM | EKVX 1.67 µM | K562 2.2 µM | MOLT-4 1.99 µM | COLO 205 1.79 µM | UACC-62 1.74 µM | HCC 2998 1.93 µM | MCF7 1.77 µM | SF-539 4.19 µM | SF-295 1.98 µM

Cc1ccc(S(=O)(=O)OC2CC=CC2)cc1
inactive: SK-MEL-28 > 100 µM | UACC-257 > 100 µM | SN12C > 100 µM | UO-31 > 100 µM | 786-0 > 100 µM | SNB-75 > 100 µM | HCT-116 > 100 µM | KM12 > 100 µM | EKVX > 100 µM | K562 > 100 µM | MOLT-4 > 100 µM | COLO 205 > 100 µM | UACC-62 > 100 µM | HCC 2998 > 100 µM | SF-295 > 100 µM | DLD-1 > 100 µM

CCOC(=O)C(C)(NC(=O)c1ccc(NCc2ccc3nc(NC(=O)c4ccccc4)nc(NC(=O)c4ccccc4)c3c2)cc1)C(=O)OCC
inactive: SK-MEL-28 8.18 µM | UACC-257 13.5 µM | SN12C 11.4 µM | UO-31 18.1 µM | 786-0 3.19 µM | SNB-75 3.4 µM | NCI-H23 9.86 µM | HCT-116 6.97 µM | EKVX 19 µM | MOLT-4 26.6 µM | COLO 205 40.4 µM | UACC-62 8.49 µM | HCC 2998 25.8 µM | SF-539 3.51 µM | SF-295 6.79 µM | DLD-1 15.6 µM

C[C@]12CC[C@@H]3c4cc(Br)c(O)c(Br)c4CC[C@H]3[C@@H]1CCC2=O
inactive: SK-MEL-28 31 µM | UACC-257 20.9 µM | SN12C 27.7 µM | UO-31 11.9 µM | 786-0 19.7 µM | Hs-578T 21.9 µM | SNB-75 16.1 µM | NCI-H23 13.8 µM | HCT-116 27.5 µM | KM12 63.7 µM | EKVX 25.5 µM | K562 18 µM | MOLT-4 20.6 µM | COLO 205 > 100 µM | UACC-62 16.3 µM | HCC 2998 13.9 µM | MCF7 21.4 µM | SF-539 19.9 µM | SF-295 16.4 µM

CC(=O)NNc1nc(C)c(C(=O)NNC(=O)C(=O)Nc2c([N+](=O)[O-])ccc(C)c2C)s1
inactive: SK-MEL-28 > 100 µM | UACC-257 > 100 µM | SN12C > 100 µM | UO-31 > 100 µM | 786-0 > 100 µM | NCI-H23 > 100 µM | HCT-116 > 100 µM | KM12 > 100 µM | EKVX > 100 µM | K562 41.5 µM | MOLT-4 43.6 µM | COLO 205 > 100 µM | UACC-62 > 100 µM | HCC 2998 > 100 µM | SF-539 > 100 µM | SF-295 > 100 µM | DLD-1 > 100 µM

COc1cc(C2C(C(=O)O)=C(C)Oc3cc4c(cc32)OCO4)cc(OC)c1OC (stereo not drawn)
inactive: SK-MEL-28 26.4 µM | UACC-257 39.6 µM | SN12C 38.2 µM | UO-31 15.3 µM | 786-0 37.2 µM | SNB-75 14.6 µM | NCI-H23 54.2 µM | HCT-116 37.1 µM | EKVX 58.5 µM | K562 19.9 µM | MOLT-4 21.3 µM | COLO 205 23.9 µM | UACC-62 11.7 µM | SF-295 17.3 µM | DLD-1 29 µM

CC(O)CN1C(=O)NC(Cc2ccccc2)C1=O (stereo not drawn)
inactive: SK-MEL-28 > 100 µM | UACC-257 > 100 µM | SN12C > 100 µM | UO-31 > 100 µM | 786-0 > 100 µM | SNB-75 > 100 µM | NCI-H23 > 100 µM | KM12 > 100 µM | EKVX > 100 µM | COLO 205 > 100 µM | HCC 2998 > 100 µM | SF-539 > 100 µM | SF-295 > 100 µM | DLD-1 > 100 µM

CC(=O)Nc1cc(N(CCOS(C)(=O)=O)CCOS(C)(=O)=O)ccc1N=O
inactive: SK-MEL-28 > 100 µM | UACC-257 > 100 µM | UO-31 > 100 µM | 786-0 > 100 µM | SNB-75 > 100 µM | NCI-H23 > 100 µM | HCT-116 > 100 µM | KM12 > 100 µM | K562 > 100 µM | MOLT-4 > 100 µM | COLO 205 > 100 µM | UACC-62 > 100 µM | HCC 2998 > 100 µM | SF-539 > 100 µM | SF-295 > 100 µM | DLD-1 > 100 µM

OCCCOC(c1ccccc1)(c1ccccc1)c1ccccc1
inactive: SK-MEL-28 > 100 µM | UACC-257 > 100 µM | SN12C > 100 µM | UO-31 47 µM | 786-0 > 100 µM | SNB-75 20.1 µM | NCI-H23 75.7 µM | HCT-116 50.7 µM | KM12 > 100 µM | K562 > 100 µM | MOLT-4 93.3 µM | COLO 205 > 100 µM | UACC-62 88.5 µM | HCC 2998 > 100 µM | SF-539 > 100 µM | SF-295 82.6 µM | DLD-1 60.1 µM

COc1cccc(SSc2cccc(OC)c2C(=O)O)c1C(=O)O
inactive: SK-MEL-28 > 100 µM | UACC-257 > 100 µM | SN12C > 100 µM | UO-31 > 100 µM | 786-0 > 100 µM | SNB-75 > 100 µM | NCI-H23 > 100 µM | HCT-116 > 100 µM | KM12 > 100 µM | EKVX > 100 µM | K562 > 100 µM | MOLT-4 > 100 µM | COLO 205 > 100 µM | UACC-62 > 100 µM | SF-539 > 100 µM | SF-295 > 100 µM | DLD-1 > 100 µM

O=c1c(-c2ccc3c(c2)OCO3)coc2c3c(ccc12)OCO3
inactive: SK-MEL-28 24.3 µM | UACC-257 53.1 µM | SN12C 41.8 µM | UO-31 43.7 µM | 786-0 19.4 µM | Hs-578T 22.3 µM | SNB-75 23 µM | NCI-H23 19.2 µM | HCT-116 33 µM | KM12 30.8 µM | EKVX 38 µM | K562 > 100 µM | MOLT-4 > 100 µM | COLO 205 > 100 µM | UACC-62 76.7 µM | HCC 2998 58.1 µM | MCF7 15.9 µM | SF-539 20 µM | SF-295 18 µM
